*1 amine or outer side, *2 acyl side, *3 side chain or, on linkers, in order; H or OH if unused. Where a SMILES comes first, the peptide text is derived from it. Bridges are numbered along the chain shown (N, C = ends). [ ]: non-standard residue; d: D form. The star is where a group is joined. hPhe(3-Cl-4-CF3) = N[C@@H](CCc1ccc(C(F)(F)F)c(Cl)c1)C(=O)O; X27 = Cc1ccc(C[C@@H](C(=O)[*:2])N(CC2CCCCC2)[*:1])cc1; NEtPhe(4-CF3) = CCN[C@@H](Cc1ccc(C(F)(F)F)cc1)C(=O)O; NMeGly(cPent) = CN[C@H](C(=O)O)C1CCCC1; NMeD = CN[C@@H](CC(=O)O)C(=O)O; NMeL = CN[C@@H](CC(C)C)C(=O)O; Morpholide = C1CN(*)CCO1; NMeA = CN[C@@H](C)C(=O)O; Ac5c = NC1(C(=O)O)CCCC1; Aze = O=C(O)[C@@H]1CCN1; Sar = CNCC(=O)O
Tests used:
[1] = target: GDP-bound NRAS wild-type protein (Homo sapiens, UniProt P01111); assay: Binding to NRAS by surface plasmon resonance (SPR), Single Cycle Kinetics; conditions: for NRAS/KRAS (ratio of KD value with respect to GDP-bound NRAS wild-type protein to KD value with respect to KRAS): class symbols
GDP-bound NRAS wild-type protein, sequence (P01111 whole entry): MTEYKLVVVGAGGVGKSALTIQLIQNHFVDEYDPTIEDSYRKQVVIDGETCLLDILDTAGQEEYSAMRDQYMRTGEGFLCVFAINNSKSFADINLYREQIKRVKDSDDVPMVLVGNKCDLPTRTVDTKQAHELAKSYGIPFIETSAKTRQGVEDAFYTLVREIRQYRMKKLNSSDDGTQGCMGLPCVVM

[2] = target: GDP-bound HRAS wild-type protein (Homo sapiens, UniProt P01112); assay: Binding to HRAS by surface plasmon resonance (SPR), Single Cycle Kinetics; conditions: for HRAS/KRAS (ratio of KD value with respect to GDP-bound HRAS wild-type protein to KD value with respect to KRAS): class symbols
GDP-bound HRAS wild-type protein, sequence (P01112 whole entry): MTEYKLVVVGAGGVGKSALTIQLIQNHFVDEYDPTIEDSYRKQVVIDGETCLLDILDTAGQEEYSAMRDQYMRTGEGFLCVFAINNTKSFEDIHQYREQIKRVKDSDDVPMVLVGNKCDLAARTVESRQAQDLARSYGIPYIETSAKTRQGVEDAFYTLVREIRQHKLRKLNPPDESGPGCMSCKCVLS

[3] = KD ratio, GDP-bound NRAS wild-type vs GDP-bound KRAS wild-type, SPR
[4] = KD ratio, GDP-bound HRAS wild-type vs GDP-bound KRAS wild-type, SPR

## CCO[C@@H]1C[C@H]2C(=O)NC3(CCC3)C(=O)N(C)[C@@H](C3CCCC3)C(=O)N(C)[C@H](C(=O)N3CCOCC3)CC(=O)N(C)[C@@H](COC)C(=O)N[C@@H]([C@@H](C)CC)C(=O)NCC(=O)N(C)[C@H]3CCCCCN(C3=O)[C@@H](Cc3ccc(C(F)(F)F)cc3)C(=O)N(C)CC(=O)N[C@@H](CCc3cc(F)c(C(F)(F)F)c(F)c3)C(=O)N2C1 [PP0858]
[1]; [3]
  NRAS/KRAS (ratio of KD value with respect to NRAS to KD value with respect to KRAS): B (a compound having 3 or more and less than 10 is denoted as B)
[2]; [4]
  HRAS/KRAS (ratio of KD value with respect to HRAS to KD value with respect to KRAS): B (a compound having 3 or more and less than 10 is denoted as B)

## CC[C@H](C)[C@@H]1NC(=O)[C@H](COC)N(C)C(=O)C[C@@H](C(=O)N(C)C)N(C)C(=O)[C@H](C2CCCC2)N(C)C(=O)C2(CC(C)(C)C2)NC(=O)[C@@H]2C[C@@H](OC3CCCC3)CN2C(=O)[C@H](CCc2cc(F)c(C(F)(F)F)c(F)c2)NC(=O)CN(C)C(=O)[C@H](Cc2ccc(C)cc2)N2CC/C=C\C[C@@H](C2=O)N(C)C(=O)CN(C2CC2)C1=O [PP2626]
[1]
  NRAS/KRAS (ratio of KD value with respect to GDP-bound NRAS wild-type protein to KD value with respect to KRAS): A (a compound having 10 or more and less than 20 is denoted as A)
[2]
  HRAS/KRAS (ratio of KD value with respect to GDP-bound HRAS wild-type protein to KD value with respect to KRAS): A (a compound having 10 or more and less than 20 is denoted as A)

## CC[C@H](C)[C@@H]1NC(=O)[C@H](CC(C)C)N(C)C(=O)C[C@@H](C(=O)N2CCOCC2)N(C)C(=O)[C@H](C2CCCC2)N(C)C(=O)C2(CCCC2)NC(=O)[C@@H]2CCCN2C(=O)[C@H](CCc2ccc(C(F)(F)F)c(Cl)c2)NC(=O)CN(C)C(=O)[C@H](Cc2ccc(C)cc2)N(CC2CCCCC2)C(=O)[C@@H]2CCN2C(=O)[C@H](C)N(C)C1=O [PP0085] ([NMeL]I[NMeA][Aze][X27][Sar][hPhe(3-Cl-4-CF3)]P[Ac5c][NMeGly(cPent)][NMeD]-Morpholide; lactam N-11)
[1]; SPR
  NRAS/KRAS (ratio of KD for GDP-bound NRAS wild-type to KD for KRAS): C (A compound having a KD ratio of 0.1 or more and less than 3 is denoted as C)
[2]; SPR
  HRAS/KRAS (ratio of KD for GDP-bound HRAS wild-type to KD for KRAS): C (A compound having a KD ratio of 0.1 or more and less than 3 is denoted as C)

## CCC[C@H]1C(=O)N[C@@H]([C@@H](C)CC)C(=O)N(C)CC(=O)N(C)[C@H]2C/C=C\CCN(C2=O)[C@@H](Cc2ccc(C)cc2)C(=O)N(C)CC(=O)N[C@@H](CCc2cc(F)c(C(F)F)c(F)c2)C(=O)N2C[C@H](OCC)C[C@H]2C(=O)NC2(CC(C)(C)C2)C(=O)N(C)[C@@H](C2CCCC2)C(=O)N(C)[C@H](C(=O)N(C)C)CC(=O)N1C [PP2782]
[1]
  NRAS/KRAS (ratio of KD value with respect to GDP-bound NRAS wild-type protein to KD value with respect to KRAS): A (a compound having 10 or more and less than 20 is denoted as A)
[2]
  HRAS/KRAS (ratio of KD value with respect to GDP-bound HRAS wild-type protein to KD value with respect to KRAS): A (a compound having 10 or more and less than 20 is denoted as A)

## CCC[C@H]1C(=O)N[C@@H]([C@@H](C)CC)C(=O)N2CCC[C@H]2C(=O)N(C)[C@H]2C/C=C\CCN(C2=O)[C@@H](Cc2ccc(C(F)(F)F)cc2)C(=O)N(C)CC(=O)N[C@@H](CCc2ccc(C(F)(F)F)c(OC)c2)C(=O)N2C[C@H](OCC)C[C@H]2C(=O)N(C)C2(CCC2)C(=O)N(C)[C@@H](C2CCCC2)C(=O)N(C)[C@H](C(=O)N(C)C)CC(=O)N1C [PP2320, (1S,4S,10S,13S,17S,20S,26S,28R,32S,38S,42Z)-20-cyclopentyl-28-ethoxy-32-[2-[3-methoxy-4-(trifluoromethyl)phenyl]ethyl]-N,N,2,14,18,21,24,36-octamethyl-10-[(1S)-1-methylpropyl]-3,9,12,15,19,22,25,31,34,37,45-undecaoxo-13-propyl-38-[[4-(trifluoromethyl)phenyl]methyl]spiro[2,8,11,14,18,21,24,30,33,36,39-undecazatetracyclo[37.5.1.0^4,8.0^26,30]pentatetracont-42-ene-23,1′-cyclobutane]-17-carboxamide]
[1]; SPR, GDP-bound NRAS wild-type vs GDP-bound KRAS wild-type
  NRAS/KRAS (ratio of KD value with respect to NRAS to KD value with respect to KRAS): A (a compound having 10 or more and less than 20 is denoted as A)
[2]; SPR, GDP-bound HRAS wild-type vs GDP-bound KRAS wild-type
  HRAS/KRAS (ratio of KD value with respect to HRAS to KD value with respect to KRAS): A (a compound having 10 or more and less than 20 is denoted as A)

## CCO[C@@H]1C[C@H]2C(=O)NC3(CC(C)(C)C3)C(=O)N(C)[C@@H](C3CCCC3)C(=O)N(C)[C@H](C(=O)N(C)C)CC(=O)N(C)[C@@H](CC(F)F)C(=O)N[C@@H]([C@@H](C)CC)C(=O)N(C)CC(=O)N(C)[C@H]3C/C=C\CCN(C3=O)[C@@H](Cc3ccc(C(F)(F)F)cc3)C(=O)N(C)CC(=O)N[C@@H](CCc3ccc(C(F)(F)F)c(Cl)c3)C(=O)N2C1 [PP1747]
[1]; [3]
  NRAS/KRAS (ratio of KD value for NRAS to KD value for KRAS): A (a compound having 10 or more and less than 20 is denoted as A)
[2]; [4]
  HRAS/KRAS (ratio of KD value for HRAS to KD value for KRAS): A (a compound having 10 or more and less than 20 is denoted as A)

## CC[C@H](C)[C@@H]1NC(=O)[C@H](CC(C)C)N(C)C(=O)C[C@@H](C(=O)N2CCOCC2)N(C)C(=O)[C@H](C2CCCC2)N(C)C(=O)C2(CCCC2)NC(=O)[C@@H]2CCCN2C(=O)[C@H](CCc2ccc(C(F)(F)F)c(Cl)c2)NC(=O)CN(C)C(=O)[C@H](Cc2ccc(C(F)(F)F)cc2)N(CC)C(=O)[C@@H]2CCN2C(=O)[C@H](C)N(C)C1=O [PP0002] ([NMeL]I[NMeA][Aze][NEtPhe(4-CF3)][Sar][hPhe(3-Cl-4-CF3)]P[Ac5c][NMeGly(cPent)][NMeD]-Morpholide; lactam N-11)
[1]; SPR
  NRAS/KRAS (ratio of KD for GDP-bound NRAS wild-type to KD for KRAS): C (A compound having a KD ratio of 0.1 or more and less than 3 is denoted as C)
[2]; SPR
  HRAS/KRAS (ratio of KD for GDP-bound HRAS wild-type to KD for KRAS): C (A compound having a KD ratio of 0.1 or more and less than 3 is denoted as C)
